Earlier results as cited in patent publication US20040266797A1, “Use of potent,selective and non toxic c-kit inhibitors for treating tumor angiogensis” (priority 2001, published 2004).

System: tumor growth
Conditions: inhibiting mast cell degranulation

Compound: O=C([O-])c1cc(=O)c2c(OCC(O)COc3cccc4oc(C(=O)[O-])cc(=O)c34)cccc2o1.[Na+].[Na+] [disodium cromoglycate]
- tumor growth: significantly depresse tumor growth
